Experimental data: patent publication US11926615B1, “2-alkoxy[4,3:6,4-terpyridine]-3-carbonitriles as antimicrobial compounds” (KING FAISAL UNIVERSITY, priority 2023, dated 2024)

Legend:
Type in all cases: cell-based
[1] = system: Escherichia coli; assay: Agar plate disc-diffusion, antibacterial inhibition zone; conditions: DMSO control zone subtracted; for inhibition zone, Escherichia coli, A: A = concentration of comp. = 10,000 μL; for inhibition zone, Escherichia coli, B: B = concentration of comp. = 30.000 μL; for inhibition zone, Escherichia coli, C: C = concentration of comp. = 50,000 μL
Procedure: (§1) The agar plate disc-diffusion method was applied. Sterilized filter papers (6 mm in diameter) were wetted with 10 μL of a solution of 2-ethoxy[4,3:6,4-terpyridine]-3-carbonitrile (4) and 2-methoxy[4,3:6,4-terpyridine]-3-carbonitrile (5) to be tested, containing […], and the discs were allowed to air dry. The discs were then placed onto the surface of agar plates (nutrient agar for bacteria and Sabouraud's dextrose agar for fungi) seeded with the test organism. Each plate contained 15 mL of the agar medium, previously seeded with 0.2 mL of the broth culture of each organism pregrown for 18 hours. The plates were incubated at 37° C. for 48 h, and 72 h for fungi. The inhibition zones were measured in mm. Discs impregnated with DMSO were used as a control, and its inhibition zone was subtracted from the tested compound actual inhibition zone.

[2] = system: Bacillus Cereus; assay: as above; conditions: DMSO control zone subtracted; for inhibition zone, Bacillus Cereus, A: A = concentration of comp. = 10,000 μL; for inhibition zone, Bacillus Cereus, B: B = concentration of comp. = 30.000 μL; for inhibition zone, Bacillus Cereus, C: C = concentration of comp. = 50,000 μL
Procedure: as §1

[3] = system: Staphylococcus aureus; assay: as above; conditions: DMSO control zone subtracted; for inhibition zone, Staphylococcus aureus, A: A = concentration of comp. = 10,000 μL; for inhibition zone, Staphylococcus aureus, B: B = concentration of comp. = 30.000 μL; for inhibition zone, Staphylococcus aureus, C: C = concentration of comp. = 50,000 μL
Procedure: as §1

[4] = system: Pseudomonas aeruginosa; assay: as above; conditions: DMSO control zone subtracted; for inhibition zone, Pseudomonas aeruginosa, A: A = concentration of comp. = 10,000 μL; for inhibition zone, Pseudomonas aeruginosa, B: B = concentration of comp. = 30.000 μL; for inhibition zone, Pseudomonas aeruginosa, C: C = concentration of comp. = 50,000 μL
Procedure: as §1

[5] = system: Aspergillus flavus; assay: Agar plate disc-diffusion, antifungal inhibition zone; conditions: DMSO control zone subtracted; for inhibition zone, Aspergillus flavus, A: A = concentration of comp. = 10,000 μL; for inhibition zone, Aspergillus flavus, B: B = concentration of comp. = 30.000 μL; for inhibition zone, Aspergillus flavus, C: C = concentration of comp. = 50,000 μL
Procedure: as §1

[6] = system: Chrysosporium keratinophilum; assay: as above; conditions: DMSO control zone subtracted; for inhibition zone, Chrysosporium keratinophilum, A: A = concentration of comp. = 10,000 μL; for inhibition zone, Chrysosporium keratinophilum, B: B = concentration of comp. = 30.000 μL; for inhibition zone, Chrysosporium keratinophilum, C: C = concentration of comp. = 50,000 μL
Procedure: as §1

Row | Compound | inhibition zone, Escherichia coli, A [1] [mm] | inhibition zone, Escherichia coli, B [1] [mm] | inhibition zone, Escherichia coli, C [1] [mm] | inhibition zone, Bacillus Cereus, A [2] [mm] | inhibition zone, Bacillus Cereus, B [2] [mm] | inhibition zone, Bacillus Cereus, C [2] [mm] | inhibition zone, Staphylococcus aureus, A [3] [mm] | inhibition zone, Staphylococcus aureus, B [3] [mm] | inhibition zone, Staphylococcus aureus, C [3] [mm] | inhibition zone, Pseudomonas aeruginosa, A [4] [mm] | inhibition zone, Pseudomonas aeruginosa, B [4] [mm] | inhibition zone, Pseudomonas aeruginosa, C [4] [mm] | inhibition zone, Aspergillus flavus, A [5] [mm] | inhibition zone, Aspergillus flavus, B [5] [mm] | inhibition zone, Aspergillus flavus, C [5] [mm] | inhibition zone, Chrysosporium keratinophilum, A [6] [mm] | inhibition zone, Chrysosporium keratinophilum, B [6] [mm] | inhibition zone, Chrysosporium keratinophilum, C [6] [mm]
1 | CCOc1nc(-c2ccncc2)cc(-c2cccnc2)c1C#N [Compound 4, 2-ethoxy[4,3:6,4-terpyridine]-3-carbonitrile] | 33 | 41 | 49 | 27 | 34 | 39 | 19 | 23 | 33 | 28 | 34 | 41 | 30 | 34 | 41 | 26 | 31 | 39
2 | COc1nc(-c2ccncc2)cc(-c2cccnc2)c1C#N [Compound 5, 2-methoxy[4,3:6,4-terpyridine]-3-carbonitrile] | 32 | 39 | 42 | 32 | 36 | 41 | 23 | 28 | 37 | 26 | 32 | 40 | 19 | 24 | 30 | 27 | 30 | 46
